Target: T1, human enzyme NAMPT (full length) (Homo sapiens, UniProt P43490)
T1 construct: human enzyme NAMPT (full length)
Test: NMN fluorescence biochemical assay (stimulation of NMN synthesis by NAMPT)
Conditions: for EC50: NMN fluorescence assay, purified human NAMPT 100 nM, concentration giving half-maximal activation, read-out: Enzymatic EC50; for Enzymatic Emax: fold change of maximal activation compared to DMSO
Outline: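 Full-length human NAMPT (100 nM) was preincubated 15 min at 37 °C with compound in 50 mM Tris-HCl pH 7.5, 10 mM MgCl2, 2 mM DTT, then reacted 1 h at 37 °C with 50 μM NAM, 100 μM PRPP, 4 mM ATP (stated solution concentrations). NMN was derivatised with acetophenone/KOH then formic acid and read at Ex/Em 382/445 nm; EC50 and Emax (fold over DMSO) reported.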

T1 sequence (P43490 whole entry): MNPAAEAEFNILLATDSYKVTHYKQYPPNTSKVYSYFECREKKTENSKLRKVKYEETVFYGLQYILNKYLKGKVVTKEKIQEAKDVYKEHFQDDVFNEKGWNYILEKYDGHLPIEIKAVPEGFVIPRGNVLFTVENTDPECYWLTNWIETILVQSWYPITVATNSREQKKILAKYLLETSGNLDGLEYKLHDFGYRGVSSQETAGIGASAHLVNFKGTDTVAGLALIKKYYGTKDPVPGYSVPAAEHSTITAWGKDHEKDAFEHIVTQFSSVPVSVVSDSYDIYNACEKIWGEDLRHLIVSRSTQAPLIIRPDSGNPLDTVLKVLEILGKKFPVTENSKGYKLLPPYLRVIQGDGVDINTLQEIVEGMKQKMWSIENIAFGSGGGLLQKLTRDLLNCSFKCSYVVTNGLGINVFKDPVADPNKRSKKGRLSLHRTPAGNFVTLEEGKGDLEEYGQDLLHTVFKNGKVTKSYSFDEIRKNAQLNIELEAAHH

EC50 [µM] | Enzymatic Emax | Structure (SMILES)
0.5 to 5 | B (3≥B>2) | Cn1ncc(Cl)c1CC1c2cccc(Br)c2C(=O)N1CC1CC2(CNC(=O)O2)C1 (stereo not drawn) [Compound 434, 2-((4-bromo-1-((4-chloro-1-methyl-1H-pyrazol-5-yl)methyl)-3-oxoisoindolin-2-yl)methyl)-5-oxa-7-azaspiro[3.4]octan-6-one]
0.5 to 5 | C (2≥C) | CC(=O)Nc1ncc(CN2C(=O)c3ccccc3C2Cc2ncccc2Br)cn1 (stereo not drawn) [Compound 443, N-(5-((1-((3-bromopyridin-2-yl)methyl)-3-oxoisoindolin-2-yl)methyl)pyrimidin-2-yl)acetamide]
≥ 5 | B (3≥B>2) | Cn1ncc(Cl)c1CC1(C)c2ccccc2C(=O)N1CC1CC2(CNC(=O)O2)C1 (stereo not drawn) [Compound 445, 2-((1-((4-chloro-1-methyl-1H-pyrazol-5-yl)methyl)-1-methyl-3-oxoisoindolin-2-yl)methyl)-5-oxa-7-azaspiro[3.4]octan-6-one]
≥ 5 | B (3≥B>2) | O=C1c2sc(Br)nc2CN1Cc1ccc(O)cc1 [Compound 447, 2-bromo-5-(4-hydroxybenzyl)-4,5-dihydro-6H-pyrrolo[3,4-d]thiazol-6-one]
0.5 to 5 | C (2≥C) | Cn1ncc(Cl)c1CC1c2ccccc2C(=O)N1CC#Cc1c[nH]cn1 (stereo not drawn) [Compound 452, 2-(3-(1H-imidazol-4-yl)prop-2-yn-1-yl)-3-((4-chloro-1-methyl-1H-pyrazol-5-yl)methyl)insoindolin-1-one]
≥ 5 | C (2≥C) | Cc1ccnc(C#N)c1CC1c2ccccc2C(=O)N1CC1CCc2[nH]nnc2C1 (stereo not drawn) [Compound 454, 4-methyl-3-((3-oxo-2-((4,5,6,7-tetrahydro-1H-benzo[d][1,2,3]triazol-5-yl)methyl)isoindolin-1-yl)methyl)picolinonitrile]
≥ 5 | C (2≥C) | Cn1ncc(Cl)c1CC1c2ccccc2C(=O)N1[C@H]1C[C@H](c2c[nH]c(=O)o2)C1 (stereo partly drawn) [Compound 455, 5-((1r,3r)-3-(1-((4-chloro-1-methyl-1H-pyrazol-5-yl)methyl)-3-oxoisoindolin-2-yl)cyclobutyl)oxazol-2(3H)-one]
≥ 5 | C (2≥C) | O=C1c2ccccc2C(Cc2ncccc2Br)N1CCNc1c[nH]nn1 (stereo not drawn) [Compound 456, 2-(2-((1H-1,2,3-triazol-4-yl)amino)ethyl)-3-((3-bromopyridin-2-yl)methyl)isoindolin-1-one]
≥ 5 | C (2≥C) | Cn1ncc(Cl)c1CC1c2ccccc2C(=O)N1CC1CCc2[nH]nnc21 (stereo not drawn) [Compound 457, 3-((4-chloro-1-methyl-1H-pyrazol-5-yl)methyl)-2-((1,4,5,6-tetrahydrocyclopenta[d][1,2,3]triazol-4-yl)methyl)isoindolin-1-one]
≥ 5 | B (3≥B>2) | O=C1c2ccccc2C(Cc2ncccc2Br)N1C/C=C/c1n[nH]c(=O)o1 (stereo not drawn) [Compound 458, (E)-5-(3-(1-((3-bromopyridin-2-yl)methyl)-3-oxoisoindolin-2-yl)prop-1-en-1-yl)-1,3,4-oxadiazol-2(3H)-one]
≥ 5 | C (2≥C) | Cn1c(CC2c3ccccc3C(=O)N2CC2CC3(CNC(=O)O3)C2)ccc(Cl)c1=O (stereo not drawn) [Compound 472, 2-((1-((5-chloro-1-methyl-6-oxo-1,6-dihydropyridin-2-yl)methyl)-3-oxoisoindolin-2-yl)methyl)-5-oxa-7-azaspiro[3.4]octan-6-one]
≥ 5 | C (2≥C) | Cn1c(CC2c3ccccc3C(=O)N2CC2CC3(CNC(=O)O3)C2)cccc1=O (stereo not drawn) [Compound 494, 2-((1-((1-methyl-6-oxo-1,6-dihydropyridin-2-yl)methyl)-3-oxoisoindolin-2-yl)methyl)-5-oxa-7-azaspiro[3.4]octan-6-one]
< 0.5 | B (3≥B>2) | Cn1ncc(Cl)c1CC1c2cc(F)cc(F)c2C(=O)N1CC1CC2(CNC(=O)O2)C1 (stereo not drawn) [Compound 496, 2-((1-((4-chloro-1-methyl-1H-pyrazol-5-yl)methyl)-4,6-difluoro-3-oxoisoindolin-2-yl)methyl)-5-oxa-7-azaspiro[3.4]octan-6-one]
< 0.5 | B (3≥B>2) | CN(C)C1CN(c2ccc3c(c2)C(Cc2c(Cl)cnn2C)N(CC2CC4(CNC(=O)O4)C2)C3=O)C1 (stereo not drawn) [Compound 497, 2-((3-((4-chloro-1-methyl-1H-pyrazol-5-yl)methyl)-5-(3-(dimethylamino)azetidin-1-yl)-1-oxoisoindolin-2-yl)methyl)-5-oxa-7-azaspiro[3.4]octan-6-one]
< 0.5 | B (3≥B>2) | CN(C)c1ccc2c(c1)C(Cc1c(Cl)cnn1C)N(CC1CC3(CNC(=O)O3)C1)C2=O (stereo not drawn) [Compound 498, 2-((3-((4-chloro-1-methyl-1H-pyrazol-5-yl)methyl)-5-(dimethylamino)-1-oxoisoindolin-2-yl)methyl)-5-oxa-7-azaspiro[3.4]octan-6-one]
< 0.5 | B (3≥B>2) | Cn1nc(Cl)c(Cl)c1CC1c2ccccc2C(=O)N1C[C@H]1C[C@@]2(CNC(=O)O2)C1 (stereo partly drawn) [Compound 499, (2s,4s)-2-((1-((3,4-dichloro-1-methyl-1H-pyrazol-5-yl)methyl)-3-oxoisoindolin-2-yl)methyl)-5-oxa-7-azaspiro[3.4]octan-6-one]
0.5 to 5 | C (2≥C) | Cn1nc(Cl)c(Cl)c1CC1c2ccccc2C(=O)N1C[C@H]1C[C@@]2(CNC(=O)O2)C1 (stereo partly drawn) [Compound 500, (2r,4r)-2-((1-((3,4-dichloro-1-methyl-1H-pyrazol-5-yl)methyl)-3-oxoisoindolin-2-yl)methyl)-5-oxa-7-azaspiro[3.4]octan-6-one]
0.5 to 5 | C (2≥C) | Cn1cc(C#CCN2C(=O)c3ccccc3C2Cc2c(Cl)cnn2C)cn1 (stereo not drawn) [Compound 501, 3-((4-chloro-1-methyl-1H-pyrazol-5-yl)methyl)-2-(3-(1-methyl-1H-pyrazol-4-yl)prop-2-yn-1-yl)isoindolin-1-one]
≥ 5 | C (2≥C) | Cc1ccc(CN2C(=O)c3ccccc3C2Cc2c(Cl)cnn2C)cc1 (stereo not drawn) [Compound 503, 3-((4-chloro-1-methyl-1H-pyrazol-5-yl)methyl)-2-(4-methylbenzyl)isoindolin-1-one]
0.5 to 5 | B (3≥B>2) | Cc1n[nH]cc1/C=C(/F)CN1C(=O)c2ccccc2C1Cc1c(Cl)cnn1C (stereo not drawn) [Compound 504, (E)-3-((4-chloro-1-methyl-1H-pyrazol-5-yl)methyl)-2-(2-fluoro-3-(3-methyl-1H-pyrazol-4-yl)allyl)isoindolin-1-one]
≥ 5 | C (2≥C) | O=C1c2ccccc2C(Cc2ncccc2Br)N1Cc1ncc(O)cn1 (stereo not drawn) [Compound 505, 3-((3-bromopyridin-2-yl)methyl)-2-((5-hydroxypyrimidin-2-yl)methyl)isoindolin-1-one]
< 0.5 | B (3≥B>2) | Cc1cc(F)c2c(c1)C(Cc1c(Cl)cnn1C)N(CC1CC3(CNC(=O)O3)C1)C2=O (stereo not drawn) [Compound 506, 2-((1-((4-chloro-1-methyl-1H-pyrazol-5-yl)methyl)-4-fluoro-6-methyl-3-oxoisoindolin-2-yl)methyl)-5-oxa-7-azaspiro[3.4]octan-6-one]
≥ 5 | B (3≥B>2) | Cn1ncc(Cl)c1CC1c2ccccc2C(=O)N1C[C@]1(F)C[C@]2(CNC(=O)O2)C1 (stereo partly drawn) [Compound 507, (2s,4s)-2-((1-((4-chloro-1-methyl-1H-pyrazol-5-yl)methyl)-3-oxoisoindolin-2-yl)methyl)-2-fluoro-5-oxa-7-azaspiro[3.4]octan-6-one]
≥ 5 | C (2≥C) | Cn1ncc(Cl)c1CC1c2ccccc2C(=O)N1CC1CC2(CN=C(NC#N)O2)C1 (stereo not drawn) [Compound 520, N-(2-((1-((4-chloro-1-methyl-1H-pyrazol-5-yl)methyl)-3-oxoisoindolin-2-yl)methyl)-5-oxa-7-azaspiro[3.4]oct-6-en-6-yl)cyanamide]
≥ 5 | C (2≥C) | Cn1ncc(Cl)c1CC1c2ccccc2C(=O)N1C/C=C/c1nn[nH]c1Cl (stereo not drawn) [Compound 525, (E)-3-((4-chloro-1-methyl-1H-pyrazol-5-yl)methyl)-2-(3-(5-chloro-1H-1,2,3-triazol-4-yl)allyl)isoindolin-1-one]
≥ 5 | C (2≥C) | Cn1ncc(Cl)c1CC1c2ccccc2C(=O)N1Cc1ccc(OC(F)F)cc1 (stereo not drawn) [Compound 528, 3-((4-chloro-1-methyl-1H-pyrazol-5-yl)methyl)-2-(4-(difluoromethoxy)benzyl)isoindolin-1-one]
0.5 to 5 | C (2≥C) | COc1ccc(CN2C(=O)c3ccccc3C2Cc2c(Cl)cnn2C)nc1 (stereo not drawn) [Compound 529, 3-((4-chloro-1-methyl-1H-pyrazol-5-yl)methyl)-2-((5-methoxypyridin-2-yl)methyl)isoindolin-1-one]
≥ 5 | C (2≥C) | COc1ncc(CN2C(=O)c3ccccc3C2Cc2c(Cl)cnn2C)cc1F (stereo not drawn) [Compound 532, 3-((4-chloro-1-methyl-1H-pyrazol-5-yl)methyl)-2-((5-fluoro-6-methoxypyridin-3-yl)methyl)isoindolin-1-one]
≥ 5 | B (3≥B>2) | Cn1ncc(Cl)c1CC1c2ccccc2C(=O)N1CC1CC(=O)C1 (stereo not drawn) [Compound 556, 3-((4-chloro-1-methyl-1H-pyrazol-5-yl)methyl)-2-((3-oxocyclobutyl)methyl)isoindolin-1-one]

Structure (SMILES) | EC50 [µM] | Enzymatic Emax
Cn1ncc(Cl)c1CC1c2ccccc2C(=O)N1Cc1ccccc1 (stereo not drawn) [Compound 502, 2-benzyl-3-((4-chloro-1-methyl-1H-pyrazol-5-yl)methyl)isoindolin-1-one] | ≥ 5 | C (2≥C)

Source: patent publication US20260078130A1, “NAMPT MODULATORS, PREPARATIONS, AND USES THEREOF” (SIRONAX LTD., priority 2022, published 2026)
